Measurements: PubChem BioAssay (NCI)
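Step 1: Grow cells in 96-well plates. Step 2: Expose to compound for 48 hours at 5 concentrations. Step 3: Interpolate endpoints linearly; if unreached, use highest concentration. The concentration for 50% growth inhibition is given as GI50. Definition used: TGI = concentration required for complete inhibition of growth.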

Assays:
Test in all cases: NCI anticancer screen, dose series, 48 h
[1] = system: 786-0 renal
[2] = system: A498 renal
[3] = system: A549 NSCLC
[4] = system: ACHN renal
[5] = system: BT-549 breast
[6] = system: CAKI-1 renal
[7] = system: CCRF-CEM leukemia
[8] = system: COLO 205 colon
[9] = system: DU-145 prostate
[10] = system: EKVX NSCLC
[11] = system: HCC-2998 colon
[12] = system: HCT-116 colon
[13] = system: HCT-15 colon
[14] = system: HL-60(TB) leukemia
[15] = system: HOP-62 NSCLC
[16] = system: HOP-92 NSCLC
[17] = system: HS 578T breast
[18] = system: HT29 colon
[19] = system: IGROV1 ovarian
[20] = system: K-562 leukemia
[21] = system: KM12 colon
[22] = system: LOX IMVI melanoma
[23] = system: M14 melanoma
[24] = system: MALME-3M melanoma
[25] = system: MCF7 breast
[26] = system: MDA-MB-231 breast
[27] = system: MDA-MB-435
[28] = system: MDA-MB-468 breast
[29] = system: MOLT-4 leukemia
[30] = system: NCI-H226 lung
[31] = system: NCI-H23 lung
[32] = system: NCI-H460 lung
[33] = system: NCI-H522 lung
[34] = system: NCI/ADR-RES ovarian
[35] = system: OVCAR-3 ovarian
[36] = system: OVCAR-4 ovarian
[37] = system: OVCAR-5 ovarian
[38] = system: OVCAR-8 ovarian
[39] = system: PC-3 prostate
[40] = system: RPMI-8226 leukemia
[41] = system: RXF 393 renal
[42] = system: SF-268 CNS
[43] = system: SF-295 CNS
[44] = system: SF-539 CNS
[45] = system: SK-MEL-2 melanoma
[46] = system: SK-MEL-28 melanoma
[47] = system: SK-MEL-5 melanoma
[48] = system: SK-OV-3 ovarian
[49] = system: SN12C renal
[50] = system: SNB-19 CNS
[51] = system: SNB-75 CNS
[52] = system: SR leukemia
[53] = system: SW-620 colon
[54] = system: T-47D breast
[55] = system: TK-10 renal
[56] = system: U251 CNS
[57] = system: UACC-257 melanoma
[58] = system: UACC-62 melanoma
[59] = system: UO-31 renal

`COc1ccc(CCN2C(=O)/C(=C/c3csc(C#N)n3)SC2=S)cc1OC` was tested. Which GI50 [1] did it give?
The GI50 was 5.56 µM.

What about the TGI [1] of the same compound?
The TGI was 18.9 µM.

What about the GI50 [2] of the same compound?
Its GI50 is 18.6 µM.

What about the TGI [2] of the same compound?
Its TGI is 68 µM.

What about the GI50 [3] of the same compound?
Its GI50 is 35 µM.

And the TGI [3]?
The TGI was greater than 100 µM.

And the GI50 [4]?
Its GI50 is 13.4 µM.

What about the TGI [4] of the same compound?
The TGI was 31.4 µM.

What about the GI50 [5] of the same compound?
Its GI50 is 11.4 µM.

What about the TGI [5] of the same compound?
The TGI was 24.2 µM.

What about the GI50 [6] of the same compound?
The GI50 was 16.5 µM.

What about the TGI [6] of the same compound?
The TGI was 33.3 µM.

And the GI50 [7]?
Its GI50 is 3.38 µM.

And the TGI [7]?
The TGI was 11.4 µM.

And the GI50 [8]?
The GI50 was 21.6 µM.

What about the TGI [8] of the same compound?
Its TGI is 87.5 µM.

And the GI50 [9]?
Its GI50 is 2.96 µM.

What about the TGI [9] of the same compound?
Its TGI is 10.5 µM.

What about the GI50 [10] of the same compound?
The GI50 was 22.2 µM.

And the TGI [10]?
The TGI was 60 µM.

And the GI50 [11]?
The GI50 was 15.3 µM.

And the TGI [11]?
The TGI was 29.9 µM.

What about the GI50 [12] of the same compound?
Its GI50 is 4.55 µM.

And the TGI [12]?
The TGI was 16.9 µM.

What about the GI50 [13] of the same compound?
The GI50 was 5.3 µM.

And the TGI [13]?
Its TGI is 20.9 µM.

And the GI50 [14]?
Its GI50 is 14.6 µM.

What about the TGI [14] of the same compound?
The TGI was 40.1 µM.

And the GI50 [15]?
Its GI50 is 22 µM.

What about the TGI [15] of the same compound?
Its TGI is 69.6 µM.

And the GI50 [16]?
The GI50 was 2.12 µM.

And the TGI [16]?
Its TGI is 8.56 µM.

What about the GI50 [17] of the same compound?
Its GI50 is 19.8 µM.

And the TGI [17]?
The TGI was 72.9 µM.

What about the GI50 [18] of the same compound?
The GI50 was 13.5 µM.

And the TGI [18]?
Its TGI is 27.6 µM.

And the GI50 [19]?
The GI50 was 18.2 µM.

And the TGI [19]?
The TGI was 41.7 µM.

What about the GI50 [20] of the same compound?
Its GI50 is 2.97 µM.

And the TGI [20]?
Its TGI is 15.5 µM.

And the GI50 [21]?
The GI50 was 3.71 µM.

What about the TGI [21] of the same compound?
The TGI was 15.2 µM.

And the GI50 [22]?
The GI50 was 2.9 µM.

What about the TGI [22] of the same compound?
The TGI was 10.6 µM.

And the GI50 [23]?
The GI50 was 13.8 µM.

What about the TGI [23] of the same compound?
Its TGI is 49.1 µM.

And the GI50 [24]?
The GI50 was 11.9 µM.

What about the TGI [24] of the same compound?
Its TGI is 29.7 µM.

What about the GI50 [25] of the same compound?
Its GI50 is 3.3 µM.

What about the TGI [25] of the same compound?
The TGI was 15.7 µM.

And the GI50 [26]?
The GI50 was 12 µM.

And the TGI [26]?
The TGI was 28.8 µM.

And the GI50 [27]?
Its GI50 is 13.6 µM.

What about the TGI [27] of the same compound?
The TGI was 29.3 µM.

What about the GI50 [28] of the same compound?
The GI50 was 2.67 µM.

What about the TGI [28] of the same compound?
The TGI was 14.9 µM.

And the GI50 [29]?
Its GI50 is 3.94 µM.

And the TGI [29]?
The TGI was 25.4 µM.

And the GI50 [30]?
Its GI50 is 15.8 µM.

And the TGI [30]?
The TGI was 41.5 µM.

And the GI50 [31]?
Its GI50 is 14.6 µM.

What about the TGI [31] of the same compound?
The TGI was 28 µM.

What about the GI50 [32] of the same compound?
Its GI50 is 17.4 µM.

And the TGI [32]?
The TGI was 38.7 µM.

What about the GI50 [33] of the same compound?
Its GI50 is 2.68 µM.

And the TGI [33]?
The TGI was 13.5 µM.

And the GI50 [34]?
Its GI50 is 16.3 µM.

What about the TGI [34] of the same compound?
Its TGI is 35.7 µM.

What about the GI50 [35] of the same compound?
The GI50 was 4.99 µM.

And the TGI [35]?
Its TGI is 18 µM.

And the GI50 [36]?
The GI50 was 11.4 µM.

And the TGI [36]?
Its TGI is 32.9 µM.

And the GI50 [37]?
The GI50 was 21.2 µM.

What about the TGI [37] of the same compound?
The TGI was 69.5 µM.

And the GI50 [38]?
The GI50 was 15.4 µM.

What about the TGI [38] of the same compound?
The TGI was 30.5 µM.

What about the GI50 [39] of the same compound?
The GI50 was 15.6 µM.

And the TGI [39]?
The TGI was 37.9 µM.

And the GI50 [40]?
The GI50 was 3.03 µM.

What about the TGI [40] of the same compound?
The TGI was 19.9 µM.

And the GI50 [41]?
Its GI50 is 3.56 µM.

And the TGI [41]?
The TGI was 12.6 µM.

What about the GI50 [42] of the same compound?
Its GI50 is 12.2 µM.

What about the TGI [42] of the same compound?
The TGI was 27 µM.

And the GI50 [43]?
The GI50 was 83.8 µM.

What about the TGI [43] of the same compound?
The TGI was greater than 100 µM.

And the GI50 [44]?
Its GI50 is 12.5 µM.

What about the TGI [44] of the same compound?
Its TGI is 25 µM.

What about the GI50 [45] of the same compound?
Its GI50 is 13.3 µM.

What about the TGI [45] of the same compound?
The TGI was 28.6 µM.

And the GI50 [46]?
The GI50 was 12.1 µM.

What about the TGI [46] of the same compound?
Its TGI is 25.3 µM.

What about the GI50 [47] of the same compound?
The GI50 was 13.6 µM.

What about the TGI [47] of the same compound?
Its TGI is 28.8 µM.

What about the GI50 [48] of the same compound?
The GI50 was 66.8 µM.

What about the TGI [48] of the same compound?
Its TGI is greater than 100 µM.

What about the GI50 [49] of the same compound?
Its GI50 is 11.9 µM.

What about the TGI [49] of the same compound?
Its TGI is 26.4 µM.

What about the GI50 [50] of the same compound?
Its GI50 is 20.7 µM.

What about the TGI [50] of the same compound?
The TGI was 54 µM.

What about the GI50 [51] of the same compound?
The GI50 was 22.6 µM.

And the TGI [51]?
The TGI was greater than 100 µM.

What about the GI50 [52] of the same compound?
Its GI50 is 2.46 µM.

And the TGI [52]?
Its TGI is 8.72 µM.

And the GI50 [53]?
Its GI50 is 3.15 µM.

And the TGI [53]?
Its TGI is 11.7 µM.

And the GI50 [54]?
Its GI50 is 3.22 µM.

What about the TGI [54] of the same compound?
The TGI was 20.6 µM.

And the GI50 [55]?
Its GI50 is 3.13 µM.

What about the TGI [55] of the same compound?
The TGI was 10.3 µM.

What about the GI50 [56] of the same compound?
The GI50 was 14.8 µM.

And the TGI [56]?
The TGI was 29.9 µM.

What about the GI50 [57] of the same compound?
Its GI50 is 11 µM.

And the TGI [57]?
Its TGI is 34 µM.

What about the GI50 [58] of the same compound?
The GI50 was 11.5 µM.

And the TGI [58]?
Its TGI is 23.9 µM.

And the GI50 [59]?
The GI50 was 5.08 µM.

What about the TGI [59] of the same compound?
The TGI was 23.9 µM.
